In patent publication US20150065436A1, “INHIBITING INTERACTION BETWEEN HIF-1ALPHA AND p300/CBP WITH HYDROGEN BOND SURROGATE-BASED HELICES” (UNIVERSITY OF SOUTHERN CALIFORNIA, priority 2013, published 2015):

Columns and labels:
[1] = molecular target: T1, 15N-labelled p300-CH1 (Homo sapiens, UniProt Q09472); assay: 1H-15N HSQC NMR titration; format: binding; conditions: 69 μM CH1, CH1:HBS 1 ratios 1:1, 1:3, 1:5, 1:10
T1 construct: human p300 CH1 domain (amino acid residues 323-423); GST (cleaved yes); made in house; host or cells: E. coli BL21 (DE3)
Procedure: Protein samples were prepared as described above. Uniformly ^15N-labelled p300-CH1 was concentrated to 69 μM in NMR buffer (10 mM Tris pH 8, 50 mM NaCl, 2 mM DTT, and 207 μM ZnSO4) using a 3 kDa MWCO Amicon Ultra centrifugal filter (Millipore) and supplemented with 5% D2O. For HSQC titration experiments, data was collected on a 600 MHz Bruker four-channel NMR system at 25° C. and analyzed with the TopSpin software (Bruker). For Zn^2+ experiments, data were collected on Agilent 600 MHz at 25° C. and analyzed using Sparky3 (Univ. of California).
For the HSQC titration experiments, five and ten molar equivalents of HBS 1 in DMSO were added to ^15N-labelled p300-CH1, and the data were collected as described above. Mean chemical shift difference (ΔδNH) observed for ^1H and ^15N nuclei of various resonances were calculated as described in Williamson, “Using Chemical Shift Perturbation to Characterise Ligand Binding,” Prog. Nucl. Mag. Resonance Spectr. […]
To further characterize the interaction of HBS 1 with the CH1 domain, ^1H-^15N HSQC NMR titration experiments were performed with uniformly ^15N-labeled CH1. […] This cleft includes Trp403 and chemical shift perturbations observed for this residue support the results of the fluorescence titration experiments. […]

[2] = system: VEGF protein; assay: ELISA of secreted VEGF protein levels; format: cell-based, human; conditions: HeLa cells, 1 μM to 10 μM, DFO 300 μM
Procedure: The ability of HBS 1 and HBS 2 to inhibit hypoxia-induced transcription of target genes (VEGFA, SLC2A1/GLUT-1, and LOX) was evaluated employing real-time quantitative RT-PCR (qRT-PCR) assays. The data from the qRT-PCR experiments are presented in FIGS. 17A-D. HBS 1 reduced expression levels of VEGF by 50% at 10 μM and greater than 60% at 50 μM showing marked dose dependence. […] Next, it was determined whether this inhibition could be observed for other therapeutically relevant hypoxia-inducible genes. […] To rule out the possibility that the compounds are only efficacious under DFO mimicked hypoxia, the efficacies of the HBS peptides in downregulating VEGF gene expression were compared under two different hypoxia mimetic conditions: DFO and prolonged incubation in an anaerobic pouch. […] Next, the effect of HBS 1 treatment on the levels of secreted VEGF protein was assessed.

[3] = Plasma stability and biodistribution study; format: in vivo; conditions: 1 mg/kg intravenously, female BALB/c mice
Procedure: Plasma stability and biodistribution studies were performed in 10-week-old female BALB/c mice (Charles River) with 3 mice per time point. Briefly, HBS 1 or peptide 3 was dissolved in 70 μL of sterile PBS and administered intravenously at a dose of 1 mg/kg. Then, 1 mL of blood was collected by cardiac puncture at euthanasia at the following time points: 30 min., 1 h., 2 h., 4 h., 6 h., 8 h., 12 h., 16 h., and 24 h. after drug administration. The experiments were performed under an approved IACUC protocol at the University of Southern California.
Samples were prepared by mixing 30 μL of plasma with 20 μL of 50% MeOH and 50% aqueous 1% formic acid. The mixture was vortexed and mixed with an additional 120 μL of 0.5% formic acid in MeOH/ACN (4:6) and 20 μL of 2.0 μg/mL isoproterenol in MeOH/1% aqueous formic acid (1:1) as an internal standard. The mixture was vortexed again for 2 minutes and centrifuged at 13,000 rpm for 4 minutes. Next, 20 μL of the supernatant was transferred to a new tube and mixed with 180 μL of 50% MeOH/ACN (4:6) and 50% aqueous 1% formic acid. Standard curves were prepared by mixing the plasma from three untreated mice with 20 μL of 50% MeOH and 50% aqueous 1% formic acid prepared with HBS 1 or peptide 3 at a concentration range of 0.05-2 μg/mL.
Samples were analyzed by LC/MS/MS using an Agilent 6210 time-of-flight LC/MS system. HPLC separation was achieved using a Prevail 3u C18 100×2.1 mm column (Grace Davison, Deerfield, Ill., USA). The column temperature was maintained at 20° C. The mobile phase consisted of A (5% acetonitrile and 95% of 0.05% aqueous formic acid) and B (5% of 05% aqueous formic acid and 95% acetonitrile). The following gradient program was used: 0% B (0 min, 0.125 ml/min), 100% B (17 min, 0.125 ml/min). The total run time was 35 minutes. […]
A mouse xenograft tumor model was used to assess the in vivo efficacy of HBS 1. The relative plasma stabilities of HBS 1 and linear peptide 3 in mice were first measured. […]

[4] = system: 786-O renal cell carcinoma tumors
Procedure: Mice (n=6) were inoculated with 786-O cells (2×10^6 cells) into the right flank and allowed to grow tumors for 21 days. […] In parallel, a control group (n=6) received injections of PBS. Tumor sizes were measured on Days 2, 3, 4, 6, 8, 11, 13, 16, 20, 25, 28, and 33. […] At a conclusion of the study, mice were injected intraperitoneally with the near-infrared dye IR-783 contrast agent and the tumors were imaged using Xenogen IVIS 200 small animal imager.
The CrTac:NCr-Foxn1^nu mouse (Taconic, Inc.) was used for efficacy studies. […] Measurable tumors (˜100 mm^3) grew in as little as 2-3 weeks after the inoculation of 2×10^6 cells into the flank of the mice. […] Tumor sizes were measured in accordance with literature recommendations.

[5] = at conclusion of study, IR-783 imaging

T1 sequence (Q09472 323-423): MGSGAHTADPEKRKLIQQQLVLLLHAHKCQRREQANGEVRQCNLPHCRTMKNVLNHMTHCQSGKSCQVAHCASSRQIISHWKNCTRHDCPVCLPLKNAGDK

In the case of `CC(C)C[C@H](NC(=O)[C@H](C)NC(=O)[C@H](CCCNC(=N)N)NC(=O)[C@H](C)N1CC=CCCC(=O)N[C@@H](CCC(=O)O)C(=O)N[C@@H](CC(C)C)C1=O)C(=O)N[C@@H](CC(=O)O)C(=O)N[C@@H](CCC(N)=O)C(N)=O` [HBS 1, XELA*RALDQ-NH2], the “shift in CH1 resonances on addition of compound” value [1] is reported as “concentration-dependent shift in the resonances of several CH1 residues”, the “secreted VEGF protein levels” value [2] is reported as “downregulates VEGF protein levels in HeLa cells in a dose-dependent manner” and the “pattern of plasma decay” value [3] is reported as “bi-exponential pattern of decay”. For the same compound, the “plasma concentrations over the same time intervals” value ([3]; 30 min to 24 h) was “much higher concentrations as compared to peptide 3”, the “median tumor volume reduction compared to control group” value ([4]; 13 mg/kg parenterally, 5 injections, 786-O xenograft) was 53% and the median tumor volume ([4]; 13 mg/kg, 786-O xenograft, volumes measured throughout the study) was 138 mm^3. For the same compound, the “NIR signal (IR-783) from the main tumor” value [4, 5] was “significantly reduced signal” and the “NIR signal (IR-783) in lymph nodes, brain or other organs (metastasis)” value [4, 5] was “no detectable NIR signal”.
